Assay results reported in ChEMBL document CHEMBL1201862, “PubChem BioAssay data set” (2004).
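Results reflect a 48-hour exposure of cells in 96-well plates to compound at five concentrations. GI50: concentration for 50% inhibition of growth.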 Active and inactive are the calls of the source. Rule as the data show it: active = GI50 up to about 1.1 µM and inactive = higher.

How the values were obtained:
Assay in all cases: NCI tumour cell line growth inhibition, 48 h
CCRF-CEM = test system: CCRF-CEM
M14 = test system: M14
EKVX = test system: EKVX
SF-295 = test system: SF-295
HL-60 = test system: HL-60
OVCAR-5 = test system: OVCAR-5
ACHN = test system: ACHN
OVCAR-3 = test system: OVCAR-3
786-0 = test system: 786-0
A549 = test system: A549
SR = test system: SR
KM12 = test system: KM12
COLO 205 = test system: COLO 205
UACC-62 = test system: UACC-62
PC-3 = test system: PC-3
UACC-257 = test system: UACC-257
HT-29 = test system: HT-29
SK-MEL-5 = test system: SK-MEL-5
HCC 2998 = test system: HCC 2998

Structure (SMILES)	GI50 (CCRF-CEM)	GI50 (M14)	GI50 (EKVX)	GI50 (SF-295)	GI50 (HL-60)	GI50 (OVCAR-5)	GI50 (ACHN)	GI50 (OVCAR-3)	GI50 (786-0)	GI50 (A549)	GI50 (SR)	GI50 (KM12)	GI50 (COLO 205)	GI50 (UACC-62)	GI50 (PC-3)	GI50 (UACC-257)	GI50 (HT-29)	GI50 (SK-MEL-5)	GI50 (HCC 2998)
COc1ccc(Cc2ccccc2C(=O)O)c2ccccc12	26.1 µM (inactive)	35.6 µM (inactive)	26.4 µM (inactive)	28.4 µM (inactive)	21 µM (inactive)	24.3 µM (inactive)	31.2 µM (inactive)	20.7 µM (inactive)	34.2 µM (inactive)	33 µM (inactive)	31.5 µM (inactive)	18.7 µM (inactive)	17.9 µM (inactive)	16.3 µM (inactive)	30.6 µM (inactive)	24.7 µM (inactive)	28.8 µM (inactive)	17.3 µM (inactive)	
COc1ccc(-n2sc3ncc(C)cc3c2=O)cc1	10.6 µM (inactive)	18.7 µM (inactive)	18.3 µM (inactive)	50.1 µM (inactive)		20.1 µM (inactive)	18.3 µM (inactive)	16.9 µM (inactive)	17.3 µM (inactive)	20.7 µM (inactive)	35.4 µM (inactive)	16.1 µM (inactive)	16.1 µM (inactive)	17.5 µM (inactive)	15.6 µM (inactive)		17.4 µM (inactive)	13.2 µM (inactive)	62.2 µM (inactive)
COc1ccc(-c2cc(-c3cc(C)cc(Br)c3O)no2)cc1	> 10 µM (inactive)	25.6 µM (inactive)	25.2 µM (inactive)	3.45 µM (inactive)	47.9 µM (inactive)	30.4 µM (inactive)	8.36 µM (inactive)	6.38 µM (inactive)	12 µM (inactive)	13.3 µM (inactive)	67.5 µM (inactive)	22.2 µM (inactive)	> 10 µM (inactive)	6.47 µM (inactive)	4.44 µM (inactive)	11 µM (inactive)	31.6 µM (inactive)	7 µM (inactive)	
CC(=O)OC1CCN(C(=O)c2ccccc2)CC1CC1(c2cc3ccccc3[nH]2)OCCO1 (stereo not drawn)	48.3 µM (inactive)	83.8 µM (inactive)	83 µM (inactive)	68.5 µM (inactive)	24.2 µM (inactive)	> 100 µM (inactive)	> 100 µM (inactive)	53.1 µM (inactive)	> 100 µM (inactive)	50.1 µM (inactive)		67.5 µM (inactive)	53.1 µM (inactive)	36.6 µM (inactive)	34.9 µM (inactive)	50 µM (inactive)	> 100 µM (inactive)	44 µM (inactive)	47.3 µM (inactive)
CSc1cc(Cl)c(C)cc1S(=O)(=O)NC(=O)NNc1ccc(C)cc1	> 100 µM (inactive)	> 100 µM (inactive)	> 100 µM (inactive)	> 100 µM (inactive)		> 100 µM (inactive)	30.7 µM (inactive)	> 100 µM (inactive)	> 100 µM (inactive)	> 100 µM (inactive)	40.2 µM (inactive)	78.3 µM (inactive)	> 100 µM (inactive)		43.5 µM (inactive)		> 100 µM (inactive)	> 100 µM (inactive)	22.2 µM (inactive)
CC12CCC([C@H](Nc3cc(C(F)(F)F)cc(C(F)(F)F)c3)C1=O)C2(C)C (stereo partly drawn)		> 100 µM (inactive)	> 100 µM (inactive)	37.4 µM (inactive)		> 100 µM (inactive)	> 100 µM (inactive)	16.8 µM (inactive)	> 100 µM (inactive)	> 100 µM (inactive)	> 100 µM (inactive)	> 100 µM (inactive)	> 100 µM (inactive)		> 100 µM (inactive)	> 100 µM (inactive)	84.3 µM (inactive)	> 100 µM (inactive)	> 100 µM (inactive)
COC(=O)/C=C/c1ccc2nncnc2c1.COC(=O)/C=C\c1ccc2nncnc2c1	> 100 µM (inactive)	21 µM (inactive)	> 100 µM (inactive)	23.4 µM (inactive)	96.4 µM (inactive)	> 100 µM (inactive)	> 100 µM (inactive)	32.7 µM (inactive)	> 100 µM (inactive)	21.2 µM (inactive)	56.9 µM (inactive)	31.6 µM (inactive)	21.6 µM (inactive)	15.7 µM (inactive)	34.7 µM (inactive)	16.9 µM (inactive)	20 µM (inactive)	8.17 µM (inactive)	
NC(CC(=O)O)(Cc1ccccc1)C(=O)O (stereo not drawn)	> 100 µM (inactive)	> 100 µM (inactive)	> 100 µM (inactive)	> 100 µM (inactive)	> 100 µM (inactive)	> 100 µM (inactive)	> 100 µM (inactive)	> 100 µM (inactive)	> 100 µM (inactive)	> 100 µM (inactive)	> 100 µM (inactive)	> 100 µM (inactive)	> 100 µM (inactive)	> 100 µM (inactive)	> 100 µM (inactive)	> 100 µM (inactive)	> 100 µM (inactive)	> 100 µM (inactive)	
CSc1ncnc2c1ncn2C1OC(CO)C(O)OC1O (stereo not drawn)	0.0579 µM (active)	1.14 µM (inactive)	0.624 µM (active)	13.6 µM (inactive)	1.97 µM (inactive)	2.01 µM (inactive)	0.643 µM (active)	0.348 µM (active)	0.785 µM (active)	0.662 µM (active)	0.619 µM (active)	0.789 µM (active)	1.8 µM (inactive)	2.96 µM (inactive)	2.26 µM (inactive)	0.902 µM (active)	0.449 µM (active)	3.73 µM (inactive)	
O=C(SC1=NCCN1)c1cccc2ccccc12	21.8 µM (inactive)	67.6 µM (inactive)	28.3 µM (inactive)	36.8 µM (inactive)	23.8 µM (inactive)	> 100 µM (inactive)	66.8 µM (inactive)	56.9 µM (inactive)	67.5 µM (inactive)	> 100 µM (inactive)		37 µM (inactive)	> 100 µM (inactive)	> 100 µM (inactive)	42 µM (inactive)	28.9 µM (inactive)	38.6 µM (inactive)	66.5 µM (inactive)	> 100 µM (inactive)
CCOC(=O)C(=NN(C)c1ncccc1N)C(=O)OCC	37.5 µM (inactive)	32.5 µM (inactive)		> 100 µM (inactive)	15.1 µM (inactive)			30.7 µM (inactive)	29.6 µM (inactive)	> 100 µM (inactive)	36.2 µM (inactive)	> 100 µM (inactive)	14.4 µM (inactive)	> 100 µM (inactive)	62.5 µM (inactive)	24.4 µM (inactive)	65.6 µM (inactive)	68.4 µM (inactive)	
COc1ccc2c(c1)C1=NCCN(CCN(C)C)c3ccc([N+](=O)[O-])c(c31)N2	0.258 µM (active)	0.489 µM (active)	0.736 µM (active)	0.35 µM (active)	0.427 µM (active)	1.59 µM (inactive)	0.191 µM (active)	0.499 µM (active)	0.255 µM (active)	0.417 µM (active)	0.404 µM (active)	0.374 µM (active)		0.535 µM (active)	0.411 µM (active)	1.38 µM (inactive)	0.348 µM (active)	0.845 µM (active)	
CC(=O)NNc1nc(C)c(C(/C=C/c2cccc([N+](=O)[O-])c2)=N/NC(=S)NN)s1	> 100 µM (inactive)	> 100 µM (inactive)	52.1 µM (inactive)	> 100 µM (inactive)	> 100 µM (inactive)	> 100 µM (inactive)	> 100 µM (inactive)	> 100 µM (inactive)	> 100 µM (inactive)	> 100 µM (inactive)		> 100 µM (inactive)	> 100 µM (inactive)	> 100 µM (inactive)	> 100 µM (inactive)	> 100 µM (inactive)	> 100 µM (inactive)	> 100 µM (inactive)	> 100 µM (inactive)
CC/C=C/C(CC)C/C(C)=C\[C@]1(CC)C[C@H](CC)[C@H](CC(=O)O)OO1 (stereo partly drawn)	0.105 µM (active)	1.64 µM (inactive)		0.324 µM (active)	0.682 µM (active)	1.29 µM (inactive)	0.265 µM (active)	1.15 µM (inactive)	1.31 µM (inactive)	0.121 µM (active)	0.114 µM (active)	0.0991 µM (active)	1.32 µM (inactive)	1.66 µM (inactive)	0.366 µM (active)	3.42 µM (inactive)	0.499 µM (active)	1.27 µM (inactive)	
Cc1nc2c(cc1C(=O)N/N=C/c1ccc([N+](=O)[O-])cc1)c(=O)n(C)c(=O)n2C	> 100 µM (inactive)	> 100 µM (inactive)	91.2 µM (inactive)	54.1 µM (inactive)	> 100 µM (inactive)	> 100 µM (inactive)	> 100 µM (inactive)	> 100 µM (inactive)	26.5 µM (inactive)	> 100 µM (inactive)		> 100 µM (inactive)	> 100 µM (inactive)	> 100 µM (inactive)	> 100 µM (inactive)	> 100 µM (inactive)	> 100 µM (inactive)	> 100 µM (inactive)	> 100 µM (inactive)
O=C(/C=C/c1ccc(O)c(-c2cc(C(=O)/C=C/c3ccc(O)cc3)c(O)cc2O)c1)c1ccc(O)cc1O [RHUSCHALCONE VI]	10.1 µM (inactive)	49.1 µM (inactive)	> 50 µM (inactive)	37.5 µM (inactive)	17.3 µM (inactive)	> 50 µM (inactive)	> 50 µM (inactive)	16.2 µM (inactive)	47.6 µM (inactive)	> 50 µM (inactive)	11.4 µM (inactive)	13.3 µM (inactive)	10.5 µM (inactive)	9.16 µM (inactive)	22.5 µM (inactive)	> 50 µM (inactive)	10.1 µM (inactive)	27.8 µM (inactive)	
